We go through one molecule from patent publication US20230263748A1, “APPLICATION OF BENFLUMETOL AND DERIVATIVES THEREOF IN TREATMENT OF CORONAVIRUS INFECTION” (ACADEMY OF MILITARY MEDICAL SCIENCES, priority 2020, published 2023).

One data set relates to SARS-CoV-2. It is filed as cell-based. Particulars: for Viral genome copy number (MOI = 0.05): supernatant.
The test system of another data set is Vero E6 cells. Briefly: Detection of drug cytotoxicity by CCK-8 kit. The class given is cell-based. As to conditions: for Cell viability (% of negative control): Vero E6, 48 h. The procedure:
The detection of drug cytotoxicity was performed by CCK-8 kit (Beoytime). Specific steps were as follows: • (1) 1×10^4 Vero E6 (ATCC) cells were inoculated in a 96-well plate and cultured at 37° C. for 8 hours. • (2) The drug was diluted with DMSO to obtain a stock solution with an appropriate concentration, and then diluted with MEM medium (purchased from Gibco, Cat. No. 10370021) containing 2% FBS (purchased from Gibco, Cat. No. 16000044) to the same concentration as that for the drug treatment. The original medium in the 96-well plate was discarded, 100 μL of drug-containing MEM medium was added to the cells, and three replicate wells were set for each concentration. Negative control (adding DMSO and medium to the cell wells, without adding drug) and blank control (no cells, adding DMSO and medium) were set. After the drug was added, the cells were cultured at 37° C. for 48 hours. • (3) 20 μL of CCK-8 solution (Beoytime) was added to the wells to be tested, mixed gently without generating air bubbles, and incubation was continued at 37° C. for 2 hours. OD450 was read on a microplate reader (purchased from Molecular Devices, model: SpectraMax M5), and cell viability was calculated:
Cell viability (%)=(A(drug treatment group)−A(blank control))/(A(negative control)−A(blank control))×100% • wherein A represents reading of microplate reader.

Where two headings read alike, the source gives them in different places.

Regarding `CCCCN(CCCC)CC(O)c1cc(Cl)cc2c1-c1ccc(Cl)cc1/C2=C/c1ccc(Cl)cc1` (centres unmarked) [benflumetol], the “Viral genome copy number (MOI = 0.05)” value came out at 125717580 in the data set on SARS-CoV-2 (3.13 μM, Vero E6 cells, 48 h after infection); 87462582 in the data set on SARS-CoV-2 (6.25 μM, Vero E6 cells, 48 h after infection); 87790130 in the data set on SARS-CoV-2 (12.5 μM, Vero E6 cells, 48 h after infection); 48801530 in the data set on SARS-CoV-2 (25 μM, Vero E6 cells, 48 h after infection); 20512679 with SARS-CoV-2 (50 μM, Vero E6 cells, 48 h after infection); 2927366 in the data set on SARS-CoV-2 (100 μM, Vero E6 cells, 48 h after infection). Moreover, the “Inhibition of viral RNA load on cells, dose dependence (in words)” value in the data set on SARS-CoV-2 (Vero E6 cells, 48 h after infection, FIG. 1) was “the inhibitory activity was dose-dependent”. Further, the “Inhibition of replication of the SARS-CoV-2 virus genome in the infection supernatant (in words)” value with SARS-CoV-2 (at 100 μM, 50 μM and 25 μM) was “effectively inhibit the replication of the SARS-CoV-2 virus genome”. Further, the “Cell viability (% of negative control)” value is 92.88% in the data set on Vero E6 cells (0.78 μM); 94.55% in the data set on Vero E6 cells (1.56 μM); 96.69% in the data set on Vero E6 cells (3.13 μM); 106.70% in the data set with Vero E6 cells (6.25 μM); 108.69% with Vero E6 cells (12.5 μM); 113.54% in the data set with Vero E6 cells (25 μM). In addition, the results for the “Cell viability (% of negative control)” value in the data set with Vero E6 cells (50 μM) and in the data set on Vero E6 cells (100 μM) were 115.52% and 122.12%, respectively. The “Toxic effect on the cells (in words)” value in the data set on Vero E6 cells (all test concentrations) is on record as “no toxic effect on the cells at all concentrations”.
